For the assay, the target named is T1, Bile acid receptor (Homo sapiens, UniProt Q96RI1).
T1 sequence (Q96RI1 whole entry): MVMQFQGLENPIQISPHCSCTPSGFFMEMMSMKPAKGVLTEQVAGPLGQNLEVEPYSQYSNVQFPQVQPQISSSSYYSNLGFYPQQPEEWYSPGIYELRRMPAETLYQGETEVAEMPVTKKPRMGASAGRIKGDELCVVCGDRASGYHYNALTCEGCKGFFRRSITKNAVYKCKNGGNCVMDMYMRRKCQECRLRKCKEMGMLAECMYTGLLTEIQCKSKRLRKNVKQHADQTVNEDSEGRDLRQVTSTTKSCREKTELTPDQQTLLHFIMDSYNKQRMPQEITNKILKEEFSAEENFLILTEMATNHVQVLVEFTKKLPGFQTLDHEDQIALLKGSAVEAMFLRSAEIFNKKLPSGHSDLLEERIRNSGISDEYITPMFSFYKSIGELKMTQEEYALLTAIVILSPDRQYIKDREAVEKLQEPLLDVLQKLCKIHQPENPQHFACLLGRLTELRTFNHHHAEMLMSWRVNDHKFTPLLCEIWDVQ
The experiment in a line: Cotransfection Assay. Particulars: pH 7.2; 37 °C.
As a reminder, the EC50 is the concentration giving half of the maximal effect. Read a low EC50 as greater potency. In turn, `O=C(O)c1cccc(NC(=O)c2ccc(OCc3c(-c4c(Cl)cccc4Cl)noc3-c3ccc(-c4ccccc4)cc3)cc2Cl)c1` [3-[(2-chloro-4-{[3-(2,6-dichlorophenyl)-5-(4-phenylphenyl)-1,2-oxazol-4-yl]methoxy}benzene)amido]benzoic acid] had an EC50 of 3.7 µM.

Consider `O=C(O)c1cccc(NC(=O)c2ccc(OCc3c(-c4c(Cl)cccc4Cl)noc3-c3ccc4ccccc4c3)cc2Cl)c1` [3-[(2-chloro-4-{[3-(2,6-dichlorophenyl)-5-(naphthalen-2-yl)-1,2-oxazol-4-yl]methoxy}benzene)amido]benzoic acid], for which the response was half-maximal at 4 µM (EC50). As for `O=C(O)c1cccc(/C=C/c2ccc(OCc3c(-c4c(Cl)cccc4Cl)noc3-c3ccc(-c4ccccc4)cc3)cc2Cl)c1` [3-[(E)-2-(2-chloro-4-{[3-(2,6-dichlorophenyl)-5-(4-phenylphenyl)-1,2-oxazol-4-yl]methoxy}phenyl)ethenyl]benzoic acid], a half-maximal effect (EC50) was put at 33.9 µM. Under `O=C(O)c1cccc(/C=C/c2ccc(OCc3c(-c4c(Cl)cccc4Cl)noc3-c3ccc4ccccc4c3)cc2Cl)c1` [3-[(E)-2-(2-chloro-4-{[3-(2,6-dichlorophenyl)-5-(naphthalen-2-yl)-1,2-oxazol-4-yl]methoxy}phenyl)ethenyl]benzoic acid] stands 22.2 µM. Molecule `O=C(O)c1cccc(/C=C/c2ccc(OCc3c(-c4c(Cl)cccc4Cl)noc3-c3ccccc3)cc2Cl)c1` [3-[(E)-2-(2-chloro-4-{[3-(2,6-dichlorophenyl)-5-phenyl-1,2-oxazol-4-yl]methoxy}phenyl)ethenyl]benzoic acid] came in with an EC50 of 15.8 µM.

The values are drawn from BindingDB's records for doi:10.1016/j.bmc.2007.01.046 (University of Tokyo, 2007).
